Holding throughout (test): inhibition of tumour cell growth, NCI panel, 48 h
The subject of assay [1] is SK-OV-3 ovarian.
The subject of assay [2] is M19-MEL melanoma.
For assay [3], the system named is DMS 114 small cell lung.
Assay [4] deals with OVCAR-3 ovarian.
The subject of assay [5] is CAKI-1 renal.
Assay [6] concerns RPMI-8226 leukemia.
Assay [7] has as its system KM20L2 colon.
The test system of assay [8] is MALME-3M melanoma.
The test system of assay [9] is HCC-2998 colon.
The test system of assay [10] is BT-549 breast.
The test system of assay [11] is PC-3 prostate.

Where “and” joins values, the source holds several entries; their conditions need not be identical. Identical values can stand only once.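 How tested: cells in 96-well plates exposed to compound for 48 hours at five concentrations. GI50 is the concentration that inhibits growth by half. TGI: concentration producing complete growth inhibition.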 *1 amine or outer side, *2 acyl side, *3 side chain or, on linkers, in order; H or OH if unused. Where a SMILES comes first, the peptide text is derived from it. Bridges are numbered along the chain shown (N, C = ends). [ ]: non-standard residue; d: D form. ξ: configuration not given here. X4 = CCC(C)C(N[*:1])C(O)CC(=O)O[C@H](C(=O)C(C)C(=O)[*:2])C(C)C; NMeY = CN[C@@H](Cc1ccc(O)cc1)C(=O)O; X9 = O=C([C@@H]1CC(O)CN1[*:1])[*:2]; ξNMeL = CNC(CC(C)C)C(=O)O; ξT = CC(O)C(N)C(=O)O

As to `COc1cc2c(cc1OC)-c1c(cnn1C1OC(COC(C)=O)C(OC(C)=O)C(OC(C)=O)C1OC(C)=O)CC2` (centres undefined), the TGI is above 100 µM in assay [1]; above 100 µM in assay [2]; above 100 µM in assay [3]; above 100 µM in assay [4]; above 100 µM in assay [5]; above 57.3 µM in assay [6]. In assay [7], this molecule displayed a TGI above 100 µM.

`O=C(Nc1ccc(C(F)(F)F)cc1[N+](=O)[O-])C(=O)C(C(=O)c1ccc2ccccc2c1)C1OC(=O)c2ccccc21` (centres undefined): the TGI in [1] was above 100 µM; in assay [2], 42.7 µM; in [3], 40.5 µM; in assay [8], 25.8 µM; in assay [9], 18.3 µM; in [4], above 51 µM. For the same molecule, the values for the TGI in assay [5], in assay [6] and in assay [7] were 41.7 µM, above 67.3 µM and 38.7 µM, respectively.

Regarding `O=C1CCC(c2nc3ccccc3o2)C(=O)N1` (centres undefined), the TGI in assay [1], in assay [2], in [3], in assay [8], in [9] and in [4] was above 100 µM each time. Also, the TGI in assay [5] and in assay [7] was above 100 µM in each case.

Regarding `Cc1ccc2sc3cc(=O)cc(C)c-3nc2c1`, the TGI is above 100 µM in assay [1]; 30.7 µM in assay [2]; above 100 µM in [3]; above 100 µM in [9]; above 100 µM in assay [4]; 93.1 µM in assay [5]. In assay [7], this molecule came in with a TGI above 100 µM.

As to `N=C(c1ccccc1)N1CCCCC1`, the TGI in [2], in [3], in assay [8], in assay [9], in assay [5] and in [7] was above 100 µM each time.

Regarding `[N-]=[N+]=Nc1ncc(-c2ccc(C(F)(F)F)cc2)c(NC2CCCCCC2)n1`, the GI50 in assay [1] was above 10 µM; in assay [10], above 10 µM; in assay [11] it was above 10 µM; in [8] it was above 10 µM; in assay [9] it was above 10 µM; in assay [4], above 10000 nM. Besides, the GI50 in assay [5] was above 10 µM; in assay [6] it was above 10000 nM. Moreover, the TGI in assay [1], in assay [10], in [11], in assay [8], in assay [9] and in [4] was above 10 µM throughout. Also, the TGI in assay [5] and in [6] was above 10 µM in each case.

As for `COc1ccc(C2CC(=O)Nc3c2c(C)nn3-c2nc3ccccc3[nH]2)cc1` (centres undefined), the GI50 was 3.23 µM in assay [1]; 3.33 µM in assay [10]; 3.21 µM in assay [11]; 2.22 µM in assay [8]; 5.67 µM in assay [9]; 2540 nM in [4]. In addition, the values for the GI50 in assay [5] and in assay [6] were 2.96 µM and 2410 nM, respectively. In addition, the TGI in assay [1] was 7.83 µM; in assay [10], 20 µM; in assay [11] it was 48.9 µM; in assay [8], 8.04 µM; in assay [9], above 58.5 µM; in assay [4], 5.72 µM. Besides, the values for the TGI in assay [5] and in assay [6] were 9.12 µM and 5.48 µM, respectively.

Take `C#Cc1cccc(NC(=O)Nc2ccc(NC(=O)CCl)cc2)c1`: the GI50 was 15.5 µM in [1]; 11.9 µM in [10]; 17.1 µM in assay [11]; 12.1 µM in assay [8]; 52.5 µM in assay [9]; 12100 nM in assay [4]. Also, the GI50 was 15.7 µM in [5] and 10800 nM in assay [6]. Also, the TGI in assay [1] is 33 µM; in [10] it was 24.1 µM; in [11], 74.5 µM; in assay [8] it was 23.9 µM; in [9], above 82.5 µM; in [4], 25.5 µM. For the same molecule, the figures for the TGI in assay [5] and in [6] were 36.2 µM and 28.5 µM, respectively.

Take `CCC(C)C1NC(=O)C(NC(=O)C(CC(C)C)N(C)C(=O)[C@@H]2CC(O)CN2)C(C)OC(=O)[C@H](Cc2ccc(OC)cc2)N(C)C(=O)[C@@H]2CCCN2C(=O)[C@H](CC(C)C)NC(=O)C(C)C(=O)[C@H](C(C)C)OC(=O)CC1O` (some centres undefined) (H-[X9][ξNMeL][ξT][X4]LP[NMeY](Me); ester 3-C): the TGI in [1] is 0.349 µM and 0.0464 µM; in [10] it was 0.0575 µM and 0.0866 µM; in [11], 0.13 µM and 0.131 µM; in [8], 0.0989 µM and 0.139 µM; in [9], 0.101 µM and 0.133 µM; in assay [4] it was 0.11 µM and 0.295 µM. In [5], this molecule gave a TGI of 2.65 µM. The results for the GI50 in assay [4], in [5] and in assay [6] were 16.6 nM, 0.151 µM and 10.3 nM, respectively.

Turning to `COc1cc(N2CCC(N(C)C)CC2)ccc1Nc1ncc(Cl)c(Nc2ccccc2P(C)(C)=O)n1`, the GI50 is 0.517 µM and 0.43 µM in [1]; 2.98 µM and 0.791 µM in assay [10]; 3.73 µM and 0.506 µM in assay [11]; 3.6 µM and 0.446 µM in assay [9]; 1730 nM and 728 nM in assay [4]; 3.24 µM and 0.326 µM in assay [5]. The GI50 in assay [6] is 3850 nM and 2050 nM. In addition, the TGI in assay [1] is 2.01 µM and > 4.16 µM; in [10], 9.97 µM and 4.35 µM; in [11], above 96.6 µM; in assay [8], 31.7 µM and > 7.77 µM; in [9] it was above 52.2 µM; in [4], 11.3 µM and 7.01 µM. Moreover, the TGI in [5] was 10.5 µM and > 4.56 µM; in assay [6] it was 21.7 µM and > 7.1 µM.

Take `C[C@]12CC[C@H]3[C@@H](CCC4=CC(=O)CC[C@@H]43)[C@@H]1CC[C@@H]2OC1(O)C(=O)c2ccccc2C1=O`: the TGI in assay [1], in assay [10], in assay [11], in assay [8], in assay [9] and in assay [4] was above 100 µM each time. Also, the results for the TGI in [5] and in assay [6] were above 100 µM and 80 µM, respectively.

As for `Cc1c(C(=O)/C=C/c2ccc(O)cc2)nnn1-c1ccnc2c(C(F)(F)F)cccc12`, the GI50 was 15.1 µM in assay [1]; 60.2 µM in assay [10]; 7.88 µM in [11]; 12.2 µM in assay [8]; 20.9 µM in assay [9]; 19500 nM in assay [4]. In addition, the GI50 in [5] was 28.6 µM; in [6] it was 2840 nM. In addition, the TGI in assay [1] was 72.5 µM; in assay [10], above 100 µM; in assay [11], above 100 µM; in [8], 75.3 µM; in [9], above 100 µM; in assay [4], above 100 µM. Further, the TGI was above 100 µM in assay [5] and 21.1 µM in assay [6].
